Publication PMC9329436, “Optimization of the 4-anilinoquin(az)oline scaffold as epidermal growth factor receptor (EGFR) inhibitors for chordoma utilizing a toxicology profiling assay platform” (Scientific Reports, 2022)
Read-outs that look alike come from different tables or passages of the source.

How the values were obtained:
[1] = system: CH22 patient-derived chordoma cell line; assay: Cell viability assay (alamarBlue, 72 h), CH22; type: cell-based, human; settings: n = 4, 72 h
How it was run: (§1)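 Patient-derived chordoma lines and WS1 fibroblasts seeded in 384-well plates, dosed in quadruplicate 24 h after plating.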

[2] = system: UM-Chor1 patient-derived chordoma cell line; assay: Cell viability assay (alamarBlue, 72 h), UM-Chor1; type: cell-based, human; settings: n = 4, 72 h
How it was run: as §1

[3] = system: U-CH12 patient-derived chordoma cell line; assay: Cell viability assay (alamarBlue, 72 h), U-CH12; type: cell-based, human; settings: n = 4, 72 h
How it was run: as §1

[4] = system: WS1 human fibroblast cell line; assay: Cell viability assay, WS1 toxicity control; type: cell-based; settings: n = 4, nonspecific toxicity control
How it was run: as §1

[5] = biological target: T1, 320 wild-type protein kinases (Homo sapiens, UniProt Q12866); type: biochemical; settings: MERTK, singlicate
T1 sequence (Q12866 21-999): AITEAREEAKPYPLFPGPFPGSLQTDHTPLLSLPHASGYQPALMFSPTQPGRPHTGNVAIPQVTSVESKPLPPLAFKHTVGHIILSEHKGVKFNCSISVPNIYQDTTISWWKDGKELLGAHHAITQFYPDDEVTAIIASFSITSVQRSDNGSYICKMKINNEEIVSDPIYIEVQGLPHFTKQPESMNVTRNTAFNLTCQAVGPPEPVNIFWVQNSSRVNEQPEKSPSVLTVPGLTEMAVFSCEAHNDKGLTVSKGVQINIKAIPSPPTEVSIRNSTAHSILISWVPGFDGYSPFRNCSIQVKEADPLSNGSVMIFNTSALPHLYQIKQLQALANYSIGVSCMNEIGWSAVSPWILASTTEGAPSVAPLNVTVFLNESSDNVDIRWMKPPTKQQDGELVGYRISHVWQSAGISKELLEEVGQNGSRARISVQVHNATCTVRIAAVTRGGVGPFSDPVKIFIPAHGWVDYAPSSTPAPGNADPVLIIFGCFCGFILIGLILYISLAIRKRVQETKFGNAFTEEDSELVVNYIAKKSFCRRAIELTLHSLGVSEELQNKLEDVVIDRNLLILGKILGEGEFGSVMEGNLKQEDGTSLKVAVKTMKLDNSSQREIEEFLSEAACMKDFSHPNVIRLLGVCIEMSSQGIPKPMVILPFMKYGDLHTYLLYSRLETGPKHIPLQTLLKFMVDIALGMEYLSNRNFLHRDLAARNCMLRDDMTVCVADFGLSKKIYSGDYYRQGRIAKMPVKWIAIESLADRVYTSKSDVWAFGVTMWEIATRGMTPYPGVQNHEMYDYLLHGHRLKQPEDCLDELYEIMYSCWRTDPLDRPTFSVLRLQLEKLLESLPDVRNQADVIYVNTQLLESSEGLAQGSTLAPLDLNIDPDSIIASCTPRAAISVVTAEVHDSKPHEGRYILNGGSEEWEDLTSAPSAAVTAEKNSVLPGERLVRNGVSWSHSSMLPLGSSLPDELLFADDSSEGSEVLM
Description: (§2) Table S4. Profiling of two compounds at two concentrations against 320 wild-type protein kinases; singlicate measurement; Residual activities (% of control).

[6] = biological target: T2, 320 wild-type protein kinases (Homo sapiens, UniProt Q13470); type: biochemical; settings: kinase TNK1, singlicate
T2 sequence (Q13470 1-666): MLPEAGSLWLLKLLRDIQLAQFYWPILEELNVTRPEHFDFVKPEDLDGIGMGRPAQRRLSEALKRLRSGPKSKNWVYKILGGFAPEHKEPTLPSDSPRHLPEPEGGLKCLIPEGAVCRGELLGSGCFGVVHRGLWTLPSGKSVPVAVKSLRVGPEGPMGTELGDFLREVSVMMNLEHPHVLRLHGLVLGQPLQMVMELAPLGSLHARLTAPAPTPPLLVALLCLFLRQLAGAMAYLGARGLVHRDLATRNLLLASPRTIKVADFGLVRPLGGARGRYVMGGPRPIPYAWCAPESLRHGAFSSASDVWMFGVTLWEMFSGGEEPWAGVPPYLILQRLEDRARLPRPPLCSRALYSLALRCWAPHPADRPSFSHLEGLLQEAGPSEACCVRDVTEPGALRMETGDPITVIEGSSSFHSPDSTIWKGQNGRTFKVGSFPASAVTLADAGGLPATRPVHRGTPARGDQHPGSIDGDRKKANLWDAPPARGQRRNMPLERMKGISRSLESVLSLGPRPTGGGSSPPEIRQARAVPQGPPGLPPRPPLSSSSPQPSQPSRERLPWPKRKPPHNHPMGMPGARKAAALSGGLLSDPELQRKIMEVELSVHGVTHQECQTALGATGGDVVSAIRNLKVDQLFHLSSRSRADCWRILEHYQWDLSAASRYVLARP
Description: as §2

MAP4K4 = MAP4K4 (Homo sapiens, UniProt O95819); assay: 33PanQinase activity assay; type: biochemical; settings: for MAP4K4 inhibition: 10 μM; for Residual activity: singlicate
Description: as §2

EGFR = EGFR (Homo sapiens, UniProt P00533); assay: ProQinase in-cell EGFR assay (EGFR phosphorylation in A431 cells); type: cell-based; design: This cell line endogenously expresses a high level of EGFR; endogenous in cells; host or cells: A431
Description: In addition, we ran an EGFR in-cell target engagement assay, measuring in-cell EGFR phosphorylation, using the human epidermoid carcinoma cell line A431. This cell line endogenously expresses a high level of EGFR, and stimulation of these cells with human epidermal growth factor (EGF) results in receptor tyrosine autophosphorylation.

[7] = ProQinase in-cell EGFR assay, A431 cells, n = 1

EGFR, sequence (P00533 25-1210): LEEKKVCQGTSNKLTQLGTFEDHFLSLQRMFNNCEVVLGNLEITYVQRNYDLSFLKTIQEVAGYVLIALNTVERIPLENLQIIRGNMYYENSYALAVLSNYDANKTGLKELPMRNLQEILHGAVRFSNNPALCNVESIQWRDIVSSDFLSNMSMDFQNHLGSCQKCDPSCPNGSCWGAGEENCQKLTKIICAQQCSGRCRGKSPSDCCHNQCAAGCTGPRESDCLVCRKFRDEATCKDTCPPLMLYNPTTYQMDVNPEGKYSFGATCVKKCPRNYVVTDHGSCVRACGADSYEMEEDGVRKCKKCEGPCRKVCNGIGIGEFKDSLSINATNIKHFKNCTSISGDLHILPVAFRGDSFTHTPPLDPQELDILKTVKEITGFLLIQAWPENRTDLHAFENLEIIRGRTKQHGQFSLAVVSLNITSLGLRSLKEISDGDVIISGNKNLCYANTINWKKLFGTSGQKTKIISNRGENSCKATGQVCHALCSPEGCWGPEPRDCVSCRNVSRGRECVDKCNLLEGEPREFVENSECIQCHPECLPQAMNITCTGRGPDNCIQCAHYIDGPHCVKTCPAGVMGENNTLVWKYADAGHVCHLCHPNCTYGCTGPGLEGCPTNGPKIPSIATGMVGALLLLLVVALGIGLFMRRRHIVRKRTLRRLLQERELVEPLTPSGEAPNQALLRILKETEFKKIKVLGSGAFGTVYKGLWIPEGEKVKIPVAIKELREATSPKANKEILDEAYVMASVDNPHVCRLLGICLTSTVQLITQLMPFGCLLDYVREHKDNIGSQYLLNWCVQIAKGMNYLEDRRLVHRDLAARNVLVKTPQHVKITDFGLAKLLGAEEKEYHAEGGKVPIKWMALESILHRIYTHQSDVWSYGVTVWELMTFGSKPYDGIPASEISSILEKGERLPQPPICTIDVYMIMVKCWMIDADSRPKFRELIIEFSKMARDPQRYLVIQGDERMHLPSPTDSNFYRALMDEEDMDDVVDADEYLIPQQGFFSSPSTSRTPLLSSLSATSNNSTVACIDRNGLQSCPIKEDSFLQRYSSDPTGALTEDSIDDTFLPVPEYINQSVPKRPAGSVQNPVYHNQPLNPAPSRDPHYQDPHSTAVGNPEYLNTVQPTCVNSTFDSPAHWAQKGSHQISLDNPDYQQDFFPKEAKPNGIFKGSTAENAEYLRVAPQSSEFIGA
MAP4K4, sequence (O95819 whole entry): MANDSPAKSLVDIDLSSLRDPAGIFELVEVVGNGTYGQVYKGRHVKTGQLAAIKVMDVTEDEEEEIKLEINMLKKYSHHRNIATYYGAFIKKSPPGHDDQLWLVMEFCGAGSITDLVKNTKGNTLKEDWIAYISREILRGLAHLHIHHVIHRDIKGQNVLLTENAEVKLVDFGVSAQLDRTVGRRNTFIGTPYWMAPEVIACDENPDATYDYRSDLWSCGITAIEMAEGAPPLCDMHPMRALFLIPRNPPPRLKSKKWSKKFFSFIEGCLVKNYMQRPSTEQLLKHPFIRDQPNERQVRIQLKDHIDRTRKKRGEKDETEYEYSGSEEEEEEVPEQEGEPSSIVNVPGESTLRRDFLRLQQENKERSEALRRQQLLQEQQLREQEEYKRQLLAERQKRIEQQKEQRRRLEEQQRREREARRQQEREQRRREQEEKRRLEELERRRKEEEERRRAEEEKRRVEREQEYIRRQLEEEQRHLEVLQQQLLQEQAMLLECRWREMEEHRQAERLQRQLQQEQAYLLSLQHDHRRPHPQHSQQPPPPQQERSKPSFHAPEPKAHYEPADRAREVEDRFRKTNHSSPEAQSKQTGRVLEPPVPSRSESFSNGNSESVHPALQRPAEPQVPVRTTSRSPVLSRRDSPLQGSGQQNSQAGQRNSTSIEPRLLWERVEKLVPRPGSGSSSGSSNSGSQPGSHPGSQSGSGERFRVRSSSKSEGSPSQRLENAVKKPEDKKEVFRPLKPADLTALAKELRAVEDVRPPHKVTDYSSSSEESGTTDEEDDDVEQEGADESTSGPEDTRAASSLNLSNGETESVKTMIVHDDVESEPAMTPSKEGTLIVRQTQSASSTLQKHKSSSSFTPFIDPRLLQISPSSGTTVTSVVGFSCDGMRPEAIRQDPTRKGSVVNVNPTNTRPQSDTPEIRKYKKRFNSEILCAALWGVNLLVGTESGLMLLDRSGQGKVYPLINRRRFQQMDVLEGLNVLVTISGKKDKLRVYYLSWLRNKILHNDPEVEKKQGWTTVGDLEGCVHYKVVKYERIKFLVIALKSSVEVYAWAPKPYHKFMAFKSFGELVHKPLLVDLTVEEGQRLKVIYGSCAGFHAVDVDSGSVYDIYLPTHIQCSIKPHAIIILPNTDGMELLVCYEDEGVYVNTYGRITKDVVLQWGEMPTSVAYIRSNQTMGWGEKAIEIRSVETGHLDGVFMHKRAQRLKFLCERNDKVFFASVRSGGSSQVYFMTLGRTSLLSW

| Compound | IC50 [1] | IC50 [2] | IC50 [3] | IC50 [4] | Residual activity ([5]; 1.0E-06 M) | Residual activity ([5]; 1.0E-07 M) | Residual activity, TNK1 ([6]; assay conc. 1.0E-06 M) | Residual activity, TNK1 ([6]; assay conc. 1.0E-07 M) | MAP4K4 inhibition (MAP4K4) | Residual activity (MAP4K4; MAP4K4, 1.0E-06 M) | Residual activity (MAP4K4; MAP4K4, 1.0E-07 M) | IC50 (EGFR; [7]) | IC50 (EGFR; in-cell EGFR inhibition) |
| --- | --- | --- | --- | --- | --- | --- | --- | --- | --- | --- | --- | --- | --- |
| C#Cc1cc(Nc2ncnc3cc(I)ccc23)ccc1Cl [Compound 41] | 0.48 µM | 25 µM | 0.96 µM | 36 µM | 102 % of control | 103 % of control | 112 % of control | 130 % of control | > 50% | 41 % of control | 73 % of control | 3.7 µM | – |
| C#Cc1cc(Nc2ncnc3cc(OC)c(OC)cc23)ccc1Cl [Compound 45] | 1.2 µM | 60 µM | 3 µM | > 100 µM | 83 % of control | 97 % of control | 83 % of control | 117 % of control | > 50% | 48 % of control | 87 % of control | 0.018 µM | < 0.1 µM |
